Targets include human P2Y1 receptor (Homo sapiens, UniProt P47900); human P2Y6 receptor (Homo sapiens, UniProt Q15077); human P2Y2 receptor (Homo sapiens, UniProt P41231); human P2Y4 receptor (Homo sapiens, UniProt P51582).
What all share (test): Fluo-3 calcium mobilization, FLIPR, […]1 cells
Common to all, as to format: cell-based
In general terms: Calcium flux is commonly read through the fluorescence of an indicator in the cells.

Chain of human P2Y6 receptor (Q15077 whole entry): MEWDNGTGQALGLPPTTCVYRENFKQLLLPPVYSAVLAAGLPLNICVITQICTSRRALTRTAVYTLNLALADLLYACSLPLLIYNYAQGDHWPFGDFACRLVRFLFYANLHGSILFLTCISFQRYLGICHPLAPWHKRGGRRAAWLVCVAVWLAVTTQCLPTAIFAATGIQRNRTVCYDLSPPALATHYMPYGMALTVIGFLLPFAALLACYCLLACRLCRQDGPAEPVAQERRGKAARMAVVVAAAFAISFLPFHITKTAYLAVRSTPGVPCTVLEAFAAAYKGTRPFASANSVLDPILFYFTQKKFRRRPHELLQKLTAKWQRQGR
Chain of human P2Y4 receptor (P51582 whole entry): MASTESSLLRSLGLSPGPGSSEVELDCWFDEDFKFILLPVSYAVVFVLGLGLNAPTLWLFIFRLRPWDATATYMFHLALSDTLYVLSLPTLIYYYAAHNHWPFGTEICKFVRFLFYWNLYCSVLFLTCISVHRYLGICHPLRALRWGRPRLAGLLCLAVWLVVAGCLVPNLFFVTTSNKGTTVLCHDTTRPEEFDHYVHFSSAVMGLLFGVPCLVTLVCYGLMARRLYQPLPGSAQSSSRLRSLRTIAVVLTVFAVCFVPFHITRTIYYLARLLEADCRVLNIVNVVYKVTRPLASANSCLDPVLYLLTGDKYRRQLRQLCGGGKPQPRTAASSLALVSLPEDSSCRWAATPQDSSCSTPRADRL
Chain of human P2Y2 receptor (P41231 whole entry): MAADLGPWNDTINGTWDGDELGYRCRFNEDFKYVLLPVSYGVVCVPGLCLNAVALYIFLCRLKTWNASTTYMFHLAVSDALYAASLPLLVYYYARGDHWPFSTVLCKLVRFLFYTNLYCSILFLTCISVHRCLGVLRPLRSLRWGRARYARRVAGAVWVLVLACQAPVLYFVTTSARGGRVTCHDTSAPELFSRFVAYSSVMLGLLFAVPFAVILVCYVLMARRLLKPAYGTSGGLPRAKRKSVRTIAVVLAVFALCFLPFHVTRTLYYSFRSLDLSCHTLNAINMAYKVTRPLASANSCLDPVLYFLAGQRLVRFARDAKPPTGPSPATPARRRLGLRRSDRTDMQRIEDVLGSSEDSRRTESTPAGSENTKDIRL
Chain of human P2Y1 receptor (P47900 whole entry): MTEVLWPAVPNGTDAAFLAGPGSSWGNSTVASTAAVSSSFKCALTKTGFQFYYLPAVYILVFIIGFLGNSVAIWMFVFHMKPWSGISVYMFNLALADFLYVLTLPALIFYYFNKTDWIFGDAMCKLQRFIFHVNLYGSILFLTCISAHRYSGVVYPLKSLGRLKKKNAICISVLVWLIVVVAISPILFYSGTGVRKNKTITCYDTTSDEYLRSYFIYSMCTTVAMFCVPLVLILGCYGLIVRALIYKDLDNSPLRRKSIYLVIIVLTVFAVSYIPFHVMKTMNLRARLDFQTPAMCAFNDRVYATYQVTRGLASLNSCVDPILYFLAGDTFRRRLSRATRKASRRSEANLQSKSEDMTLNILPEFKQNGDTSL

As to `Nc1ccn([C@@H]2O[C@H](COP(=O)(O)OP(=O)(O)OC[C@H]3O[C@@H](n4cnc5c(N)ncnc54)[C@H](O)[C@@H]3O)[C@@H](O)[C@H]2O)c(=O)n1` [compound 15, AP2C], the EC50 (commonly the concentration needed to bring the measured effect to its halfway point) is 2.11 µM on human P2Y1 receptor, 18.8 µM on human P2Y6 receptor and 6.9 µM on human P2Y2 receptor.

Consider `Nc1nc2c(ncn2[C@@H]2O[C@H](COP(=O)(O)OP(=O)(O)OC[C@H]3O[C@@H](n4cnc5c(N)ncnc54)[C@H](O)[C@@H]3O)[C@@H](O)[C@H]2O)c(=O)[nH]1` [compound 16, AP2G], for which the EC50 on human P2Y4 receptor came out at 1.5 µM; at human P2Y1 receptor it was 26.5 µM; at human P2Y6 receptor, 9.14 µM; on human P2Y2 receptor it was 1.3 µM.

For `Nc1nc2c(ncn2[C@H]2C[C@H](O)[C@@H](COP(=O)(O)OP(=O)(O)OC[C@H]3O[C@@H](n4cnc5c(N)ncnc54)[C@H](O)[C@@H]3O)O2)c(=O)[nH]1` [compound 17, AP2dG], the EC50 on human P2Y1 receptor was 24.6 µM; on human P2Y6 receptor it was more than 10 µM.

In the case of `Nc1nc2c(ncn2[C@H]2C[C@H](O)[C@@H](COP(=O)(O)OP(=O)(O)OC[C@H]3O[C@@H](n4ccc(=O)[nH]c4=O)[C@H](O)[C@@H]3O)O2)c(=O)[nH]1` [compound 20, UP2dG], the EC50 was more than 10 µM at human P2Y1 receptor, more than 10 µM on human P2Y6 receptor and 29 µM at human P2Y2 receptor.

Take `O=c1[nH]c(=S)ccn1[C@@H]1O[C@H](COP(=O)(O)OP(=O)(O)OC[C@H]2O[C@@H](n3ccc(=S)[nH]c3=O)[C@H](O)[C@@H]2O)[C@@H](O)[C@H]1O` [compound 23, 4-thioUP24-thioU]: the EC50 was 33.9 µM on human P2Y4 receptor, more than 10 µM at human P2Y1 receptor, 25.2 µM at human P2Y6 receptor and 29.1 µM at human P2Y2 receptor.

For `Nc1ncnc2c1ncn2[C@@H]1O[C@H](COP(=O)(O)OP(=O)(O)OP(=O)(O)OC[C@H]2O[C@@H](n3ccc(=O)[nH]c3=O)[C@H](O)[C@@H]2O)[C@@H](O)[C@H]1O` [compound 26, AP3U], the values for the EC50 on human P2Y1 receptor, at human P2Y6 receptor and at human P2Y2 receptor were 0.039 µM, 0.17 µM and 2 µM, respectively.

Turning to `Nc1ccn([C@@H]2O[C@H](COP(=O)(O)OP(=O)(O)OP(=O)(O)OC[C@H]3O[C@@H](n4cnc5c(N)ncnc54)[C@H](O)[C@@H]3O)[C@@H](O)[C@H]2O)c(=O)n1` [compound 27, AP3C], the EC50 on human P2Y1 receptor is 0.085 µM; on human P2Y6 receptor, more than 10 µM; at human P2Y2 receptor, 6 µM.

On to `Nc1nc2c(ncn2[C@@H]2O[C@H](COP(=O)(O)OP(=O)(O)OP(=O)(O)OC[C@H]3O[C@@H](n4cnc5c(N)ncnc54)[C@H](O)[C@@H]3O)[C@@H](O)[C@H]2O)c(=O)[nH]1` [compound 28, AP3G], for which the EC50 on human P2Y4 receptor was found to be 0.52 µM; on human P2Y1 receptor, 0.12 µM; at human P2Y6 receptor, 1.53 µM; on human P2Y2 receptor, 0.23 µM.

Consider `Nc1ncnc2c1ncn2[C@@H]1O[C@H](COP(=O)(O)OP(=O)(O)OP(=O)(O)OC[C@H]2O[C@@H](n3cnc4c(=O)[nH]cnc43)[C@H](O)[C@@H]2O)[C@@H](O)[C@H]1O` [compound 29, AP3I], for which the EC50 stood at 2.55 µM at human P2Y4 receptor, 0.11 µM at human P2Y1 receptor, 1.06 µM at human P2Y6 receptor and 1.2 µM at human P2Y2 receptor.

As to `Nc1ccn([C@@H]2O[C@H](COP(=O)(O)OP(=O)(O)OP(=O)(O)OC[C@H]3O[C@@H](n4ccc(=O)[nH]c4=O)C[C@@H]3O)[C@@H](O)[C@H]2O)c(=O)n1` [compound 36, CP3dU], the EC50 at human P2Y4 receptor was found to be 40 µM; on human P2Y1 receptor, 17 µM; at human P2Y6 receptor, 0.81 µM; at human P2Y2 receptor it was 3.1 µM.

Consider `Nc1ncnc2c1ncn2[C@@H]1O[C@H](COP(=O)(O)OP(=O)(O)OP(=O)(O)OP(=O)(O)OC[C@H]2O[C@@H](n3cnc4c(N)ncnc43)[C@H](O)[C@@H]2O)[C@@H](O)[C@H]1O` [compound 39, AP4A], for which the EC50 was found to be 0.32 µM at human P2Y1 receptor and 0.054 µM at human P2Y2 receptor.

As for `Nc1ncnc2c1ncn2[C@@H]1O[C@H](COP(=O)(O)OP(=O)(O)OP(=O)(O)OP(=O)(O)OC[C@H]2O[C@@H](n3ccc(=O)[nH]c3=O)[C@H](O)[C@@H]2O)[C@@H](O)[C@H]1O` [compound 40, AP4U], the results for the EC50 at human P2Y4 receptor, on human P2Y1 receptor and at human P2Y2 receptor were 1.45 µM, 4.75 µM and 0.35 µM, respectively.

For `Nc1ccn([C@@H]2O[C@H](COP(=O)(O)OP(=O)(O)OP(=O)(O)OP(=O)(O)OC[C@H]3O[C@@H](n4cnc5c(N)ncnc54)[C@H](O)[C@@H]3O)[C@@H](O)[C@H]2O)c(=O)n1` [compound 41, AP4C], the EC50 at human P2Y1 receptor turned out to be 0.75 µM; on human P2Y2 receptor it was 0.15 µM.

For `Nc1ncnc2c1ncn2[C@@H]1O[C@H](COP(=O)(O)OP(=O)(O)OP(=O)(O)OP(=O)(O)OC[C@H]2O[C@@H](n3cnc4c(=O)[nH]cnc43)[C@H](O)[C@@H]2O)[C@@H](O)[C@H]1O` [compound 42, AP4I], the EC50 came out at 0.55 µM on human P2Y1 receptor and 0.17 µM at human P2Y2 receptor.

With `Nc1ccn([C@@H]2O[C@H](COP(=O)(O)OP(=O)(O)OP(=O)(O)OP(=O)(O)OC[C@H]3O[C@@H](n4ccc(=O)[nH]c4=O)[C@H](O)[C@@H]3O)[C@@H](O)[C@@H]2O)c(=O)n1` [compound 50, UP4araC], the EC50 on human P2Y4 receptor came to 0.22 µM; at human P2Y1 receptor, 6.13 µM; on human P2Y6 receptor it was 3.32 µM; on human P2Y2 receptor it was 0.59 µM.

On to `Nc1ncnc2c1ncn2[C@H]1C[C@H](O)[C@@H](COP(=O)(O)OP(=O)(O)OP(=O)(O)OP(=O)(O)OC[C@H]2O[C@@H](n3ccc(=O)[nH]c3=O)[C@H](O)[C@@H]2O)O1` [compound 52, UP4dA], for which the EC50 on human P2Y4 receptor came to 0.07 µM; on human P2Y1 receptor, 3.49 µM; at human P2Y6 receptor, 4.2 µM; on human P2Y2 receptor it was 0.05 µM.
